Where two headings read alike, the source gives them in different places.
Legend:
[1] = Rough point estimate of effect size by weight loss agent from published studies (Table 7); assay type: in vivo, human
Procedure: A rough point estimate of the effect size by weight loss agent was developed using data from published studies.
The ΔWt. LossMAX for Garcinia sp. from 1.0 kg to 3.0 kg assumes the dose response curve model is valid, which has not been proven. The dosage of Phaseolus vulgaris is measured in α-amylase blocking units. Coffea canefora is administered as Syetol®, a commercial preparation most commonly used in the studies (400 mg). Crocus sativus dosages for depression are much lower 30 mg and have been shown for extracts of both stigma & leaf.

[2] = when ingested; cited from earlier work
[3] = Estimated effect of first, second and third treatment phase (Tables 1-3); assay type: in vivo, human
Source text: In some embodiments the first treatment phase may comprise administering at least one weight loss agent. In some embodiments, the at least one weight loss agent is a protein kinase A modulator, a neurotransmitter modulator or a combination thereof. In some embodiments, the weight loss agents administered during this treatment phase are selected from Camellia sinensis, caffeine, Capsicum sp., 5-hydroxytryptophan, and any combination thereof. In yet other embodiments the first treatment phase comprises administering Camellia sinensis, caffeine, Capsicum sp., 5-hydroxytryptophan, or any combination thereof. […] In some embodiments, the second treatment phase comprises administering at least one weight loss agent. In some embodiments, the at least one weight loss agent is a macro nutrient absorption modulator, a neurotransmitter modulator or a combination thereof. In some embodiments, the at least one weight loss agent is selected from Phaseolus vulgaris, […] gabonensis, Rhodiola rosea, and any combination thereof. In yet other embodiments the second treatment phase comprises administering Phaseolus vulgaris, […] gabonensis, Rhodiola rosea, or any combination thereof. […] In some embodiments, the third treatment phase comprises administering at least one weight loss agent. In some embodiments, the at least one weight loss agent is a Protein Kinase A modulator, Adenosine Mono-Phosphate activated Kinase (AMPk) modulator, or a combination thereof. In some embodiments, the at least one weight loss agent is selected from Coffea canefora, Coleus forskholii, yohimbine, caffeine, and any combination thereof. In yet other embodiments, the third treatment phase comprises administering Coffea canefora, Coleus forskholii, yohimbine, caffeine, or any combination thereof.

[4] = cited from earlier work; for thermogenic response: in man
[5] = Systematic review and meta-analysis of randomized clinical trials of Garcinia extract (HCA) with dose-response curve; assay type: in vivo, human; details: curve ΔWt=ΔWtmax(1−e^−b*dosage)
Source text: A systematic review and meta-analysis to examine the efficacy of Garcinia extract, hydroxycitric acid (HCA) as a weight reduction agent, using data from randomized clinical trials, found a small, statistically significant difference in weight loss of -0.9 kg between HCA and placebo. A nonlinear, significant (P<0.05) correlation between the dosage of HCA and body weight loss seems to exist. This relationship follows a curve ΔWt=Δ[…]) which is consistent with a first order ligand binding kinetics. […] However, HCA quickly approaches its asymptotic maximum by 2800 mg/day.

[6] = Kinetic decay model of weight loss fitted to published clinical data (efficacy benchmarks); assay type: in vivo, human; details: for ΔWt. LossMAX: model parameter; for Decay Coeff. (−b): model Weight (t)=Weight Plateau+ΔWt. LossMAX e^-bt, across studies and doses
Source text: In order to better understand the underlying dynamics of weight loss agents over time, several weight loss agents were selected to study and attempt to model. These included a wide range of weight loss agents including dietary supplements (C. sinensis & alginate), OTC drugs (orlistat), and Rx drugs (sibutramine, Qysmia®). Over time, more may be added to the database to test hypotheses and to improve the modeling of the underlying weight loss dynamics.
All agents followed the same basic kinetic model: Weight (t)=Weight Plateau+ΔWt. LossMAX e-^bt, where Weight Plateau=Starting Weight−ΔWt. LossMAX. Where t=time, b=decay coefficient, and ΔWt. LossMAX=maximum amount of weight lost, which appears to be a function of weight loss agent, dosage, and patient population. […] It does appear to vary by weight loss agent. The variation within a weight loss agent appears to be fairly low. It is critical to note that these are only the initial observations based upon estimating the results using published data. The raw data, more observations, and a more sophisticated statistical analysis are needed in order to make more definitive claims. The fact that all weight loss agents seem to follow the same relationship supports the adaptation hypothesis. […] All of the observed data fit the model well. The decay coefficient was estimated to be 0.1±0.02, and all the studies except Rossner fell within one standard deviation of this mean. The decay coefficient for the Rossner study was 0.05, which is slightly more than two standard deviations from the mean. However, it is important to put this in context. The maximum difference between the model using 0.05 as the decay coefficient and 0.10 is about 2.0 kg, which falls within the observation error range. It is unclear whether this difference was due to random chance, to variation caused by the inherent error arising from estimating the data from the published graphs, or to something more fundamental. […] LossMAX for diabetic vs non-diabetic patients on orlistat. […] However, given the number of studies analyzed, it is premature to draw any definitive conclusions beyond that these are interesting data points from which a hypothesis can be generated. All of the observed data for Qysmia fit the model well, see FIG. 8. The decay coefficient was estimated to be 0.08±0.01. The decay coefficient was very consistent across all the studies and doses. Given these were registration studies, the larger sample sizes may have allowed for better resolution. The observed data for sibutramine also fit the model well. Since there were more studies, it was impractical to show them all in a graph. The decay coefficient was estimated to be 0.14±0.04. Sibutramine offered the widest number of conditions studied, and as expected, there was more variability in the decay coefficient.

α2-adrenergic receptor = details: functions as an antagonist; cited from earlier work
α1-receptor = details: functions as an antagonist; cited from earlier work
[7] = FIG. 2; cited from earlier work

With `N[C@@H](Cc1c[nH]c2ccc(O)cc12)C(=O)O` [5-hydroxytryptophan] the Kcal/d ([1]; Dosage 50-900 mg oral) was 400 kcal/day, the Kg./wk ([1]; Dosage 50-900 mg oral) was 0.2 Kg./wk and the “ΔWt. LossMAX” value ([1]; Dosage 50-900 mg oral) was 1.5 to 2.5 kg. For the same molecule, the adverse effects [2] was “nausea and diarrhea”, the Estimated kcal/day reduction ([3]; first treatment phase) was 240 kcal/day and the “Estimated ΔWt. LossMAX” value ([3]; first treatment phase) was 1.5 to 2.5 kg. The “reduction in energy intake” value ([4]; spontaneous reduction of calorie consumption) was “about 243 Kcal/day”.
For `O=C(O)CC(O)(C(=O)O)C(O)C(=O)O` (centres unmarked) [HCA, hydroxycitric acid], the ΔWtmax [5] was “about 3.5 kg”.
In the case of `CC(C)CC(N(C)C)C1(c2ccc(Cl)cc2)CCC1` (centres unmarked) [Sibutramine, sibutramine], the “ΔWt. LossMAX” value ([6]; Dosage 1 mg) is reported as 3.7 kg, the “ΔWt. LossMAX” value ([6]; Dosage 5 mg) is reported as 4.5 kg and the “ΔWt. LossMAX” value ([6]; Dosage 10 mg) is reported as 8.4 kg. The “ΔWt. LossMAX” value ([6]; Dosage 15 mg) was 7.3 kg, the “ΔWt. LossMAX” value ([6]; Dosage 20 mg) was 8.5 kg and the “ΔWt. LossMAX” value ([6]; Dosage 30 mg) was 9.1 kg. For the same molecule, the “Decay Coeff. (−b)” value [6] was 0.14 ± 0.04 and the “Decay Coeff. (−b)” value ([6]; listed as sibutramine) was 0.14±0.04.
In the case of `COC(=O)[C@@H]1[C@H]2C[C@H]3c4[nH]c5ccccc5c4CCN3C[C@@H]2CC[C@@H]1O` [yohimbine], the “affinity for the α2-adrenergic receptor” value (α2-adrenergic receptor) is listed as “high affinity”, the Kg./wk ([1]; Dosage 20 mg/day) is listed as 0-0.16 Kg./wk and the “ΔWt. LossMAX” value ([1]; Dosage 20 mg/day) is listed as 0 to 1.5 kg. For the same molecule, the “affinity for the α1-receptor” value (α1-receptor) was “moderate affinity”, the Estimated kg/wk reduction ([3]; third treatment phase) was 0.1 kg/wk and the “Estimated ΔWt. LossMAX” value ([3]; third treatment phase) was 1.5 kg.
In the case of `Cn1c(=O)c2c(ncn2C)n(C)c1=O` [caffeine], the Kcal/d ([1]; Dosage 500-700 mg/day) is reported as 50 to 75 kcal/day, the Estimated kcal/day reduction ([3]; first treatment phase) is reported as 60 kcal/day and the “Estimated ΔWt. LossMAX” value ([3]; first treatment phase) is reported as 0.5 kg. For the same molecule, the Estimated kg/wk reduction ([3]; third treatment phase) was 0.05 kg/wk, the “Estimated ΔWt. LossMAX” value ([3]; third treatment phase) was 0.5 kg and the “raise of energy expenditure” value ([4]; 600 mg/day dose) was 63 kcal/day. The thermogenic response ([4]; dose 100 mg) was 4-5%, the thermogenic response ([4]; dose 200-250 mg) was 10-12% and the thermogenic response ([4]; dose 400-450 mg) was 16%. The “minimum (or near minimum) dose with demonstrable stimulatory effect on resting metabolic rate (RMR)” value ([4]; in vivo) was 100 mg.
For `CC(C)(N)Cc1ccccc1` [Phentermine], the “time to reduction or complete cessation of weight loss” value [7] is listed as “about 4 weeks”.
With `CCCCCCCCCCC[C@@H](C[C@@H]1OC(=O)[C@H]1CCCCCC)OC(=O)[C@H](CC(C)C)NC=O` [Orlistat, orlistat] the “ΔWt. LossMAX” value ([6]; Dosage 120 mg (diabetics)) was 4.3 kg, the “ΔWt. LossMAX” value ([6]; Dosage 120 mg) was 7.1 kg and the decay coefficient ([6]; Rossner study) was 0.05. For the same molecule, the “Decay Coeff. (−b)” value [6] was 0.11 ± 0.02 and the “Decay Coeff. (−b)” value ([6]; listed as orlistat) was 0.1±0.02.

Source: patent US20150157672A1, “KITS AND METHODS FOR SUSTAINED WEIGHT LOSS” (PHYTOLOGY LABS, INC., priority 2013, published 2015)
